Source: US20210255193A1, “LYSINE REACTIVE PROBES AND USES THEREOF” (The Scripps Research Institute, priority 2017, published 2021)
Values belong to the compound of their own block, whether it stands above or below them.

Legend:
Assay in all cases: competitive isoTOP-ABPP
Assay type in all cases: binding
FAH Fumarylacetoacetase = molecular target: T1, FAH Fumarylacetoacetase (Homo sapiens, UniProt P16930); conditions: for isoTOP-ABPP ratio (R) at liganded lysine P16930_K241 / isoTOP-ABPP reactivity ratio at lysine P16930_K241: 50 uM, in vitro; for isoTOP-ABPP ratio (R) at liganded lysine P16930_K241: sol, 231; for isoTOP-ABPP ratio, lysine P16930_K241: 50 uM_231_sol_in vitro; for isoTOP-ABPP reactivity ratio at lysine P16930_K241: 231 sol
T1 construct: isoTOP-ABPP experiments performed in cell lysates (in vitro); endogenous in cells; host or cells: soluble proteome of human cancer cell lines (MDA-MB-231; Ramos and Jurkat also prepared)
T1 sequence (P16930 1-419): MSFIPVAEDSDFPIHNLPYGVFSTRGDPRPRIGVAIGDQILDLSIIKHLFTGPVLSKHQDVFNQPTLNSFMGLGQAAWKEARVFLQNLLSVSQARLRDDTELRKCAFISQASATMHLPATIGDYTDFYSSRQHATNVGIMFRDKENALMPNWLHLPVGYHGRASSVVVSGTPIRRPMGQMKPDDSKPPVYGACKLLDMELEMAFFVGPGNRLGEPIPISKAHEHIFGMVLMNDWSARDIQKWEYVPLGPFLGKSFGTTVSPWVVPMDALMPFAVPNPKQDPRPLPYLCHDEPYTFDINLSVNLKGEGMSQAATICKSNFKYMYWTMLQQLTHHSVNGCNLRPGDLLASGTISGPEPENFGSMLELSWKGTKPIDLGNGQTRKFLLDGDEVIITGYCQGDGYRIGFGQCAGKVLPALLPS
In short: (§1)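 Lysate + fragment (50 μM activated ester / 100 μM guanidinylating agent) or DMSO → 0.1 mM STP-alkyne, 1 h, RT → CuAAC to TEV tags (compound light, DMSO heavy) → LC-MS. R = heavy/light MS1 area; liganded lysine if R≥4.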

[1] = molecular target: T2, PNPO Pyridoxine-5-phosphate oxidase (Homo sapiens, UniProt Q9NVS9); conditions: for isoTOP-ABPP ratio (R) at liganded lysine Q9NVS9_K100 / isoTOP-ABPP reactivity ratio at lysine Q9NVS9_K100: 50 uM, in vitro; for isoTOP-ABPP ratio (R) at liganded lysine Q9NVS9_K100: sol, 231; for isoTOP-ABPP ratio, lysine Q9NVS9_K100: 50 uM_231_sol_in vitro; for isoTOP-ABPP reactivity ratio at lysine Q9NVS9_K100: 231 sol
T2 construct: endogenous in cells; host or cells: MDA-MB-231 (soluble fraction of lysate)
T2 sequence (Q9NVS9 1-261): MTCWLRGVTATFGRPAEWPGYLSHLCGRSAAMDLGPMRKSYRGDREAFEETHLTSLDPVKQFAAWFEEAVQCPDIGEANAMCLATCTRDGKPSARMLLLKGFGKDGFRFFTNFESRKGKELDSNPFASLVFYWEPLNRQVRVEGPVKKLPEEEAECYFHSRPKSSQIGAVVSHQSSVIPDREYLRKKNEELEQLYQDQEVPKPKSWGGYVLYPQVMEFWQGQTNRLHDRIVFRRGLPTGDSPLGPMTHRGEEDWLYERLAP
In short: as §1

[2] = molecular target: T3, GBAS Protein NipSnap homolog 2 (Homo sapiens, UniProt O75323); conditions: for isoTOP-ABPP ratio (R) at liganded lysine O75323_K75 / isoTOP-ABPP reactivity ratio at lysine O75323_K75: 50 uM, in vitro; for isoTOP-ABPP ratio (R) at liganded lysine O75323_K75: sol, 231; for isoTOP-ABPP ratio, lysine O75323_K75: 50 uM_231_sol_in vitro; for isoTOP-ABPP reactivity ratio at lysine O75323_K75: 231 sol
T3 construct: isoTOP-ABPP experiments performed in cell lysates (in vitro); endogenous in cells; host or cells: MDA-MB-231 soluble lysate
T3 sequence (O75323 24-286): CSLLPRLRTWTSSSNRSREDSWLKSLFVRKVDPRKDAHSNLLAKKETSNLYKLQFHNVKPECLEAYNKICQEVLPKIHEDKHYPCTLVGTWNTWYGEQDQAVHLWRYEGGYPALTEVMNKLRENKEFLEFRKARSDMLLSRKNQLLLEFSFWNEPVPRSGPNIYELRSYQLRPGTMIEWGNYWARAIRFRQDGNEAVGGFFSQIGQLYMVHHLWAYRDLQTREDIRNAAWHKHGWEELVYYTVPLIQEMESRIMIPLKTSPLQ
In short: as §1

Structure (SMILES): O=C(Oc1ccc([N+](=O)[O-])cc1[N+](=O)[O-])c1ccccc1Nc1cccc(C(F)(F)F)c1 [fragment 40, 2,4-Dinitrophenyl 2-((3-(trifluoromethyl)phenyl)amino)benzoate]
- isoTOP-ABPP ratio (R) at liganded lysine P16930_K241 (FAH Fumarylacetoacetase): 1.4
- isoTOP-ABPP ratio (R) at liganded lysine Q9NVS9_K100 [1]: 0.9
- isoTOP-ABPP ratio (R) at liganded lysine O75323_K75 [2]: 1.0

Structure (SMILES): N#Cc1ccc(C(=O)Oc2ccc([N+](=O)[O-])cc2[N+](=O)[O-])cc1 [fragment 44, 2,4-Dinitrophenyl 4-cyanobenzoate]
- isoTOP-ABPP ratio, lysine P16930_K241 (FAH Fumarylacetoacetase): 2.5
- isoTOP-ABPP ratio, lysine Q9NVS9_K100 [1]: 0.9
- isoTOP-ABPP ratio, lysine O75323_K75 [2]: 1.1

Structure (SMILES): O=C(Oc1ccc([N+](=O)[O-])cc1[N+](=O)[O-])C(c1ccccc1)c1ccccc1 [fragment 30, 2,4-Dinitrophenyl 2,2-diphenylacetate]
- isoTOP-ABPP reactivity ratio at lysine P16930_K241 (FAH Fumarylacetoacetase): 2.7
- isoTOP-ABPP reactivity ratio at lysine Q9NVS9_K100 [1]: 1.0
- isoTOP-ABPP reactivity ratio at lysine O75323_K75 [2]: 1.1

Structure (SMILES): O=C(ON1C(=O)CCC1=O)c1cc(C(F)(F)F)cc(C(F)(F)F)c1 [fragment 46, 3,5-Bis(trifluoromethyl)benzoic acid NHS ester]
- isoTOP-ABPP ratio, lysine P16930_K241 (FAH Fumarylacetoacetase): 8.1
- isoTOP-ABPP ratio, lysine Q9NVS9_K100 [1]: 1.0
- isoTOP-ABPP ratio, lysine O75323_K75 [2]: 0.9

Structure (SMILES): O=C(Oc1ccc([N+](=O)[O-])cc1[N+](=O)[O-])c1ccc(Oc2ccccc2)cc1 [fragment 39, 2,4-Dinitrophenyl 4-phenoxybenzoate]
- isoTOP-ABPP ratio (R) at liganded lysine P16930_K241 (FAH Fumarylacetoacetase): 1.2
- isoTOP-ABPP ratio (R) at liganded lysine Q9NVS9_K100 [1]: 0.9
- isoTOP-ABPP ratio (R) at liganded lysine O75323_K75 [2]: 20.0

Structure (SMILES): O=C(Oc1ccc([N+](=O)[O-])cc1[N+](=O)[O-])c1ccc(-c2ccccc2)cc1 [fragment 37, 2,4-Dinitrophenyl [1,1′-biphenyl]-4-carboxylate]
- isoTOP-ABPP ratio (R) at liganded lysine P16930_K241 (FAH Fumarylacetoacetase): 1.0
- isoTOP-ABPP ratio (R) at liganded lysine Q9NVS9_K100 [1]: 0.9
- isoTOP-ABPP ratio (R) at liganded lysine O75323_K75 [2]: 1.6

Structure (SMILES): COc1cc(CCC(=O)Oc2ccc([N+](=O)[O-])cc2[N+](=O)[O-])cc(OC)c1OC [fragment 33, 2,4-Dinitrophenyl 3-(3,4,5-trimethoxyphenyl)propanoate]
- isoTOP-ABPP reactivity ratio at lysine P16930_K241 (FAH Fumarylacetoacetase): 1.7
- isoTOP-ABPP reactivity ratio at lysine Q9NVS9_K100 [1]: 1.2
- isoTOP-ABPP reactivity ratio at lysine O75323_K75 [2]: 3.0

Structure (SMILES): CC(=O)Oc1ccc([N+](=O)[O-])cc1[N+](=O)[O-] [fragment 43, 2,4-Dinitrophenyl acetate]
- isoTOP-ABPP ratio (R) at liganded lysine P16930_K241 (FAH Fumarylacetoacetase): 1.4
- isoTOP-ABPP ratio (R) at liganded lysine Q9NVS9_K100 [1]: 1.0
- isoTOP-ABPP ratio (R) at liganded lysine O75323_K75 [2]: 1.6

- isoTOP-ABPP reactivity ratio at lysine P16930_K241 (FAH Fumarylacetoacetase): 2.5
- isoTOP-ABPP reactivity ratio at lysine Q9NVS9_K100 [1]: 0.9
- isoTOP-ABPP reactivity ratio at lysine O75323_K75 [2]: 1.0
Structure (SMILES): CCn1cc(C(=O)Oc2c(F)c(F)c(F)c(F)c2F)c(=O)c2ccc(C)nc21 [fragment 28, Pentafluorophenyl 1-ethyl-7-methyl-4-oxo-1,4-dihydro-1,8-naphthyridine-3-carboxylate]
